Measurements as given in patent US20050054103A1, “Expansion of renewable stem cell populations using modulators of PI 3-kinase” (priority 2003, published 2005).

Key:
[1] = test system: CD34 cells; assay: Transition metal chelators in CD34+ cell liquid cultures (cell number, CD34 cells, clonability); format: cell-based, human
Protocol: The interphase layer of mononuclear cells were collected, washed three times with Ca/Mg free phosphate buffered saline containing 1% bovine serum albumin (BSA). The cells were incubated for 30 min. at 4° C. with murine monoclonal anti CD34 antibody (0.5 μg/10^6 mononuclear cells) and thereafter isolated using the miniMACS apparatus (Miltenyi-Biotec, Bergisch, Gladbach, Germany) according to the manufacturer's protocol.
Culture procedures: For the expansion of progenitor cells, CD34^+ enriched fractions or unseparated mononuclear cells were seeded at about 1-3×10^4 cells/ml in either alpha minimal essential medium containing 10% preselected fetal calf serum (FCS) (both from GIBCO, Grand Island, N.Y.), or serum-free medium (Progenitor-34 medium, Life Technologies, Grand Island, N.Y.). The media were supplemented with a mixture of growth factors and transition metal chelators. The cultures were incubated at 37° C. in an atmosphere of 5% CO2 in air with extra humidity. Half of the medium was changed weekly with fresh medium containing all the supplements.
Cloning potential evaluations: The cloning potential of cells developed in the liquid culture was assayed, at different intervals, in semi-solid medium. The cells were washed and seeded in 35 mm dishes in methylcellulose containing alpha medium supplemented with recombinant growth factors (SCF, G-CSF, GM-CSF and EPO). Following 2 weeks incubation, the cultures were scored with an inverted microscope. Colonies were classified as blast, mixed, erythroid, myeloid, and megakaryocytic, according to their cellular composition.
Morphological assessment: In order to characterize the resulting culture populations, aliquots of cells were deposited on a glass slide (cytocentrifuge, Shandon, Runcorn, UK), fixed and stained in May-Grunwald Giemsa. Other aliquots were stained by benzidine for intracellular hemoglobin.
Immunofluorescence staining: At different intervals, cells from the liquid cultures were assayed for CD34 antigen. Aliquots were harvested, washed and incubated on ice with FITC-labeled anti CD45 monoclonal antibody and either PE-labeled anti CD34 (HPCA-2) monoclonal antibody or PE-labeled control mouse Ig. After incubation, red cells were lysed with lysing solution, while the remaining cells were washed and analyzed by flow cytometer.
Flow cytometry: Cells were analyzed and sorted using FACStar^plus flow cytometer (Becton-Dickinson, Immunofluorometry systems, Mountain View, Calif.). Cells were passed at a rate of 1,000 cells/second through a […] nozzle, using saline as the sheath fluid. […] The PMTs was set at the appropriate voltage. Logarithmic amplification was applied for measurements of fluorescence and linear amplification—for forward light scatter. At least 10^4 cells were analyzed.
Cord blood-derived CD34 cells were plated in liquid culture in the presence of: FL—50 ng/ml, SCF—50 ng/ml, IL-6—50 ng/ml, with or without IL-3—20 ng/ml, with or without TEPA—10 μM. On day 7, the percentage of CD34 cells and the total cell number were determined. Aliquots equivalent to 1×10^3 initiating cells were assayed on days 0 and 7 for colony forming cells (CFU) by cloning in semi-solid medium. CFU expansion represents the ratio of CFU present on day 7 to CFU present on day 0.
CD34^+ cells derived from human neonatal cord blood were purified by immunomagnetic method and then cultured in liquid medium supplemented with cytokines either with or without transition metal chelators. At weekly intervals, the cultures were demi-depopulated by removing half of the culture content (supernatant and cells) and replacing it with fresh medium, cytokines and the chelators. At the indicated weeks the cellular content of the cultures were quantified for total cells (by a manual microscopic/hemocytometric method), for CD34^+ cells (by immuno-flow cytometry) and for clonogenic cells (by cloning the cells in cytokine-supplemented semi-solid medium).

[2] = test system: HL-60 cells; assay: Copper determination in chelator treated cells (atomic absorption); format: cell-based, human
Protocol: Copper Determination: Cells were harvested by centrifugation at 1000×g for 5 minutes. The cell pellet was washed three times by re-suspending the cells in PBS (Ca^++ and Mg^++ free) and centrifugation at 1000×g. An aliquot containing 2×10^6 cells was then transferred into a metal-free Eppendorf tube and the cells were recovered by centrifugation at 1000×g. The cell pellet was re-suspended in 0.03 M ultra-pure nitric acid to give a concentration of 1×10^7 cells/ml. The cells were homogenized with a high shear mixer (polytron, Kinematica, Switzerland) for 1 minutes to disrupt the cell and release intracellular copper content. Cell samples were vortexed before transferring to a vial autosampler and analyzed in duplicate by a Perkin Elmer graphite furnace atomic absorption spectrophotometer at a wavelength of 324.7 nm. The samples were analyzed against copper standard solution prepared from a commercial stock solution that was diluted with 0.03 M ultra pure nitric acid.
(§1) FIG. 44 provides the chemical structure of the various chelators employed in these experiments.

[3] = test system: HL-60 (human myeloid leukemia cell line); assay: Inhibition / induction of differentiation and growth inhibition of HL-60 cells by chelators; format: cell-based; settings: 1000 nM
Source text: as §1

[4] = test system: cord blood-derived CD34+ cells; assay: Copper-chelating peptides in CD34 cell cultures (proliferation, clonability); format: cell-based, human; settings: after 7 weeks; peptides 10 μM each, G-CSF and GM-CSF 10 ng/ml each
Protocol: CD34 cells selection: Peripheral blood “buffy coat” cells derived from a whole blood unit, peripheral blood cells obtained following leukapheresis, or blood cells were layered on Ficoll-Hypaque (density 1.077 g/ml) and centrifuged at 1,000×g for 20 minutes at room temperature. The interphase layer of mononuclear cells were collected, washed three times with Ca/Mg free phosphate buffered saline containing 1% bovine serum albumin (BSA). The cells were incubated for 30 minutes at 4° C. with murine monoclonal anti CD34 antibody (0.5 μg/10^6 […] cells) and thereafter isolated using the miniMACA apparatus (Miltenyi-Biotec, Bergisch, Gladbach, Germany) according to the manufacturer's protocol.
Culture procedures: For the expansion of progenitor cells, CD34^+ enriched fractions were seeded at 1×10^4 cells/ml in alpha minimal essential medium containing 10% preselected fetal calf serum (FCS) (both from GIBCO, Grand Island, N.Y.). The medium was supplemented with a mixture of growth factors and Copper chelators. The cultures were incubated at 37° C. in an atmosphere of 5% CO2 in air with extra humidity. Half of the medium was changed weekly with fresh medium containing all the supplements.
The cloning potential of the cultured cells was assayed in semi-solid medium. The cells were washed and seeded in 35 mm dishes in methylcellulose containing alpha medium supplemented with 30% FCS and further with recombinant growth factors (stem cell factor (SCF), G-CSF, GM-CSF and erythropoietin (EPO)). Following two week incubation, the cultures were scored with an inverted microscope. Colonies were classified as blast, mixed, erythroid, myeloid, and megakaryocytic, according to their cellular composition.
The effect of Copper-chelating peptides on proliferation and clonability in CD34 cell cultures: Cultures were initiated with 10^4 cord blood-derived CD34^+ cells by plating purified cells in liquid medium in the presence of SCF, FLT3 and IL-6 (50 ng/ml each) and the Copper-binding peptides, Gly-Gly-His (GGH) or Gly-His-Lys (GHL) (10 μM each), or the late-acting cytokines G-CSF and GM-CSF (10 ng/ml each). At weekly intervals, the cultures were demi-depopulated and supplemented with fresh medium, cytokines and the peptides. After 7 weeks, cells were counted and assayed for CFUc.

[5] = test system: Lin− c-kit+ Sca-1+ murine hematopoietic precursors; settings: cultured 7 days; cited from earlier work
[6] = cited from earlier work
[7] = test system: CD34+ cells; assay: Ex vivo expansion of CD34+ cells with the PI 3-kinase inhibitor Ly294002; format: cell-based, human
Protocol: Mononuclear cell fraction collection and purification: Human blood cells were obtained from umbilical cord blood from female patients following full-term, normal delivery (informed consent was obtained). Samples were collected and processed within 12 hours postpartum. […] Louis, Mo.), sedimented for 30 minutes to remove most red blood cells. The leukocyte-rich fraction was harvested and layered on a Ficoll-Hypaque gradient (1.077 gram/ml; Sigma), and centrifuged at 400 g for 30 minutes. […] Sigma, St. Louis, Mo.). Purification of CD34^+ cells from mononuclear cell fractions: To purify CD34^+ mononuclear cells, the mononuclear cell fraction was subjected to two cycles of immuno-magnetic separation using the MiniMACS® or […]® CD34 Progenitor Cell Isolation Kit (Miltenyi Biotec, Auburn, Calif.) as per manufacturer's recommendations. The purity of the CD34^+ population obtained ranged from 95% to 98%, as determined by flow cytometry (see below). Ex vivo expansion: Purified CD34+ cells were cultured in culture bags (American Fluoroseal Co. Gaithersburg, Md., USA) at a concentration of 1×10^4 cells/ml in MEMα/10% FCS containing the following human recombinant cytokines: […] The cultures were replenished weekly, for three weeks, with the same volume of fresh medium, Ly294002 and growth factors. From week three and up to the termination of the experiments the cultures were weekly demi-depopulated. Cells were counted following staining with trypan blue. At various time points, harvested cells were used to assay the content of colony forming units in culture (CFUc), enumeration of CD34+ cells following re-selection and immunophenotype analysis. Cell morphology was determined on cytospin (Shandon, Pittsburgh, Pa., USA) prepared smears stained with May-Grunwald/Giemsa solutions. Surface antigen analysis: The cells were washed with a PBS solution containing 1% BSA, and stained (at 4° C. for 30 min) with fluorescein isothiocyanate (FITC)- or phycoerythrin (PE)-conjugated antibodies. The cells were then washed in the above buffer and analyzed using a FACScalibur® flow cytometer (Becton Dickinson, San Jose, Calif., USA). The cells were passed at a rate of up to 1000 cells/second, using a 488 nm argon laser beam as the light source for excitation. Emission of 10^4 cells was measured using logarithmic amplification, and analyzed using the CellQuest software (Becton Dickinson). Determination of CD34+ cell content after expansion: The content of CD34+ cells was determined from a purified, re-selected fraction of expanded hematopoietic progenitor cells, using the MiniMACS CD34 progenitor cell isolation kit (Miltenyi Biotec) according to the manufacturers recommendations. In brief, mononuclear cells derived from one portion of the culture were subjected to two cycles of immunomagnetic bead separation. The purity of the CD34+ population thus obtained was 95-98%, as evaluated by flow cytometry. CD34+ cell content of the entire culture was calculated as follows: number of CD34+ cells recovered following repurification after expansion multiplied by the culture volume/volume of the portion of the culture subjected to repurification (CD34+total=CD34+ in sample×total culture volume/volume of repurified sample). Up to week three the cultures were topped weekly with fresh medium. Therefore, the culture volume was measured directly. From week three and on (due to demi-depopulation), the culture volume was calculating by multiplying the actual volume with the number of passages. Fold expansion was calculated by dividing the CD34+ cell content of the culture by the number of inoculated CD34+ cells (Fold expansion=total CD34+ content/CD34+ inoculated). […] Determination of early CD34+ cell subsets: The percentages of the early CD34+ cell subsets were determined as well from the re-purified CD34+ cell fraction. […]

[8] = Cytokines + Ly294002, two weeks
[9] = Cytokines + Ly294002, two weeks, percentage of re-purified CD34+ cells

C1CNCCNCCNCCN1 [1,4,7,10-Tetraaza cyclododecane]
effect on differentiation of CD34+ cells [1]: stimulate differentiation | Average Intracellular ppb Cu ([2]; 20 μM chelator): 27.5 ppb | Average Intracellular ppb Cu ([2]; 100 μM chelator): 73.9 ppb | Average Intracellular ppb Cu ([2]; 500 μM chelator): Toxic | activity at 20 µM ([2]; Homo sapiens, HL-60, 20 μM chelator, read-out: Average Intracellular Cu (% of control)): 56% | activity at 100 µM ([2]; Homo sapiens, HL-60, 100 μM chelator, read-out: Average Intracellular Cu (% of control)): 150% | Differentiation Induction [3]: Toxic

Gly-Gly-His [GGH]
effect on differentiation of CD34+ cells [1]: stimulate differentiation | decrease of cell number [4]: 10% | decrease of clonogenic potential (CFUc) [4]: 80%

Cc1ccc(C2=CCC(C)(C)c3ccc(C#Cc4ccc(C(=O)O)cc4)cc32)cc1 [AGN 193109]
increase in the pre-CFU-S population [5]: approximately 6 fold

Gly-His-Lys [GHL]
effect on differentiation of CD34+ cells [1]: stimulate differentiation | decrease of cell number [4]: 25% | decrease of clonogenic potential (CFUc) [4]: 78%

O=c1cc(N2CCOCC2)oc2c(-c3ccccc3)cccc12 [LY294002]
membrane permeability [6]: membrane permeable | CD34 + CD38- ×10^4 [7, 8]: 4.8 ×10^4 | CD34 + Lin- ×10^4 [7, 8]: 1.3 ×10^4 | CD34 × 10^4 [7, 8]: 53 × 10^4 | TNC × 10^4 [7, 8]: 155 × 10^4 | CD34 + CD38- (%) [7, 9]: 9.1% | CD34 + Lin- (%) [7, 9]: 2.5% | absolute content of CD34+CD38− cells ([7]; two weeks): 9×10^4 cells | absolute content of CD34+CD38−Lin− cells ([7]; two weeks): 2.5×10^4 cells | content of late progenitor, CD34+ cells ([7]; two weeks, treated cultures): 65×10^4 cells | frequency of CD34+ cells among the total cultured cells ([7]; two-weeks treatment): 0.3
